Assay results reported in US6342219B1 (Board of Regents, The University of Texas System, priority 1999, dated 2002).

Experiments:
KDR on ABAE cells = experiment: 125I-VEGF binding studies on KDR expressing endothelial cells; design: species or system bovine
[1] = system: NCI-H358 NSCLC and HT29 colon adenocarcinoma xenografts and normal organs; experiment: In vivo localization to human tumor xenografts in mice; design: species or system mouse; key to Immunohistochemical Reactivity, Heart / Immunohistochemical Reactivity, Lung / Immunohistochemical Reactivity, Liver / Immunohistochemical Reactivity, Kidney / Immunohistochemical Reactivity, Intestine / Immunohistochemical Reactivity, Spleen / Immunohistochemical Reactivity, Tumor: −, negative; +/−, very weak; 1+, weak; 2+, moderate; 3+, strong; 4+, very strong
Method: Tumors were grown subcutaneously in immunocompromised mice (NCI-H358 NSCLC in nu/nu mice and HT29 colon adenocarcinoma in SCID mice) until the tumor volume was approximately 1 cm^3. 100μg of unlabeled antibody for studies using SCID mice, or 100 μg of biotinylated antibody for studies using nude mice, was injected intravenously via a tail vein. Twenty four hours later, the mice were anesthetized, perfused with PBS, and tumor and organs including heart, lungs, liver, kidneys, intestines and spleen were collected and snap frozen in liquid nitrogen.
The tumor and organs from each mouse were sectioned on a cryostat and stained for antibody immunohistochemically as above, with the exception that sections from the nude mice were developed using peroxidase labeled streptavidin-biotin complex (Dako, Carpinteria, Calif.) and the sections from the SCID mice were developed using two peroxidase-conjugated secondary antibodies, a goat anti-mouse IgG+IgM followed by a rabbit anti-goat Ig.
Twenty-four hours later, the mice were sacrificed, exsanguinated and the tumors and tissues were removed.

VEGFR2 (sFlk-1) = experiment: ELISA of VEGF binding to VEGFR2-coated wells; design: species or system mouse
Method: FIG. 2. […] The plate was then incubated with rabbit anti-VEGF (A-20, Santa Cruz Biotechnology, Inc.) at 1 μg/ml and developed using a peroxidase conjugated goat anti-rabbit antibody. Assays were performed in triplicate. Mean percent binding in the absence of antibody is shown, together with the standard deviation.
The assay was also performed by coating wells of a microtiter plate with either control or test IgG.

VEGFR2 in PAE/KDR cells = experiment: VEGF-induced phosphorylation of VEGFR2 (immunoprecipitation and Western blot); type: cell-based, porcine; conditions: antibodies at 100 nM, 15 min
Method: PAE/KDR, PAE/FLT, and bEND.3 cells were grown to 80-90% confluency in 100 mm tissue dishes in media containing 5% serum. The cells were then serum starved for 24 hours in media containing 0.1% serum. After pretreatment with 100 […] in PBS for 30 min, the cells were incubated with 5 nM (200 ng/ml) VEGF165, 5 nM (100 ng/ml) bFGF (R&D Systems, Minneapolis, Minn.), or A673 tumor conditioned media in the presence or absence of control or test antibodies for additional 15 min.
The cells were then washed with ice-cold PBS containing 10 mM EDTA, 2 mM sodium fluoride, and 2 mM sodium orthovanadate and lysed in lysis buffer (50 mM Tris, 150 mM NaCl, 1% Nonidet P-40, 0.25% sodium deoxycholate, 0.1% CHAPS, 5 mM EDTA, 1.5 mM MgCl2, 2 mM sodium fluoride, 2 mM sodium orthovanadate, 10% glycerol and protease inhibitors (Complete Protease Inhibitor Cocktail tablets, Boehringer Mannheim)). The lysates were clarified by centrifugation and resulting supernatant used for immunoprecipitation.
The reactions using the chicken anti-FLT-1 antibody were subsequently incubated with a bridging goat anti-chicken antibody (Kirkegaard and Perry Laboratories, Inc.) for 1 h at 4° C. […]

A673 rhabdomyosarcoma = experiment: Treatment of established A673 tumors; design: species or system mice; conditions: mouse, in vivo
[2] = 24 hours after i.v. antibody, 2C3 in NCI-H358 nu/nu mice, 3E7 and GV39M in HT29 SCID mice

Question: What does the source list for “2C3: anti-VEGF monoclonal antibody, IgG2a, k, produced by hybridoma ATCC PTA 1595; blocks VEGF binding to VEGFR2 but not VEGFR1 [Clone 2C3]”?
Answer: Blocking of 125I-VEGF binding to KDR (KDR on ABAE cells): blocks VEGF from binding to KDR in a concentration dependent manner; Immunohistochemical Reactivity, Heart [1, 2]: −; Immunohistochemical Reactivity, Intestine [1, 2]: −; Immunohistochemical Reactivity, Kidney [1, 2]: −; Immunohistochemical Reactivity, Liver [1, 2]: −; Immunohistochemical Reactivity, Lung [1, 2]: −; Immunohistochemical Reactivity, Spleen [1, 2]: −; Immunohistochemical Reactivity, Tumor ([1]; 24 hours after i.v. antibody, 3E7 and GV39M bound tumor vascular endothelium, 2C3 tumor stroma): 3+; In vivo tumor localization pattern ([1]; CT = connective tissue, BV = blood vessels): Moderate to strong; In vivo localization in the HT29 human tumor model ([1]; HT29): localized strongly to the connective tissue; In vivo normal mouse tissue localization ([1]; mouse, in vivo): None detectable; Blocks VEGF from binding to VEGFR2 (VEGFR2 (sFlk-1)): Yes; Effect on VEGF binding to VEGFR2 in ELISA (VEGFR2 (sFlk-1); 100-1000 fold excess): blocked; Reduction in VEGF binding to VEGFR2 (VEGFR2 (sFlk-1); 100 fold molar excess over VEGF): about 74%; VEGF bound to VEGFR2-coated wells, of the amount bound in the absence of antibody (VEGFR2 (sFlk-1); 1000-fold molar excess over VEGF (1 nM VEGF)): ~19%; Reduction in VEGF binding to VEGFR2 (VEGFR2 (sFlk-1); 1000 fold molar excess over VEGF): about 81%; Blocking of VEGF-induced phosphorylation of VEGFR2 (VEGFR2 in PAE/KDR cells): block; Effect on growth of established A673 tumors (A673 rhabdomyosarcoma): significantly slowed the growth
